Laboratory results published in PMC11915801, “Evolutionary trajectory of bacterial resistance to antibiotics and antimicrobial peptides in Escherichia coli” (mSystems, 2025).
≈ marks a conversion by molar mass, not a printed value. Read-outs that look alike come from different tables or passages of the source.

What was measured:
[1] = tested on: antibiotic- and AMP-evolved strains of MG1655; conditions: 1.5% H2O2, 37°C, 1 h in the dark, CFU counting
Method: Bacterial cells were proportionally mixed with 3% hydrogen peroxide solution and incubated at 37°C for 1 h in the dark. The reaction was terminated by adding a catalase solution with a final concentration of 1,000 U/mL. After diluting the mixture to an appropriate gradient, the drops were carried out on LB agar plates, and then the agar plates were placed in a 37°C incubator overnight for colony counting.

[2] = tested on: E. coli K-12 MG1655; assay: microbe, parasite or virus in culture; type: cell-based, Escherichia coli; conditions: Escherichia coli
Method: (§1) The broth microdilution method was used to measure the MIC values of antibiotics and peptides according to the Clinical and Laboratory Standards Institute guidelines. The MIC value is defined as the lowest drug concentration without visible bacteria.
Eight antibiotics and ten AMPs at the sub-inhibitory concentration were prepared. A 300-µL system, including 260 µL of MH broth, 30 µL of prepared drug, and 10 µL of bacterial culture, was used for resistance passages. After 12 h of incubation at 37℃ and 200 rpm, 10 µL of the above bacterial culture was added into the new sterile drug-containing broth. MIC values of bacterial culture were determined. The drug concentration was adjusted according to the MIC value change until the end of the 120 passages.

[3] = tested on: AMP120 (evolved MG1655); assay: microbe, parasite or virus in culture; type: cell-based, Escherichia coli; conditions: Escherichia coli, MG1655; broth microdilution; ampicillin-evolved strain
Source text: (§2) To ensure the stable resistance evolution and inheritance of MG1655 under different drugs, we randomly selected three monoclonals from the evolved strains. The final antibiotic-evolved strains were designated as AMP120, AZI120, CHL80, CIP120, DOX120, KAN80, NIT70, and TMP30, while the final AMP-evolved strains were named COL120, Ind120, Omi120, Pex120, PGLA120, Pleu120, R8120, SAAP120, LI120, and SLAP120.
as §1

[4] = tested on: AZI120 (evolved MG1655); assay: microbe, parasite or virus in culture; type: cell-based, Escherichia coli; conditions: Escherichia coli, MG1655; broth microdilution; azithromycin-evolved strain
Source text: as §2, §1

[5] = tested on: CHL80 (evolved MG1655); assay: microbe, parasite or virus in culture; type: cell-based, Escherichia coli; conditions: Escherichia coli, MG1655; broth microdilution; chloramphenicol-evolved strain
Source text: as §2, §1

[6] = tested on: CIP120 (evolved MG1655); assay: microbe, parasite or virus in culture; type: cell-based, Escherichia coli; conditions: Escherichia coli; broth microdilution; ciprofloxacin-evolved strain
Source text: as §2, §1

[7] = tested on: COL120 (evolved MG1655); assay: microbe, parasite or virus in culture; type: cell-based, Escherichia coli; conditions: for MIC: Escherichia coli, MG1655, broth microdilution, colistin-evolved strain
Source text: as §2, §1

[8] = tested on: DOX120 (evolved MG1655); assay: microbe, parasite or virus in culture; type: cell-based, Escherichia coli; conditions: Escherichia coli, MG1655; broth microdilution; doxycycline-evolved strain
Source text: as §2, §1

[9] = tested on: KAN80 (evolved MG1655); assay: microbe, parasite or virus in culture; type: cell-based, Escherichia coli; conditions: Escherichia coli, MG1655; broth microdilution; kanamycin-evolved strain
Source text: as §2, §1

[10] = tested on: NIT70 (evolved MG1655); assay: microbe, parasite or virus in culture; type: cell-based, Escherichia coli; conditions: Escherichia coli, MG1655; broth microdilution; nitrofurantoin-evolved strain
Source text: as §2, §1

[11] = tested on: TMP30 (evolved MG1655); assay: microbe, parasite or virus in culture; type: cell-based, Escherichia coli; conditions: Escherichia coli, MG1655; broth microdilution; trimethoprim-evolved strain
Source text: as §2, §1

[12] = MG1655, 12 h, read-out: MIC of MG1655 under the pressure of the same drug, generation 10
[13] = MG1655, read-out: MIC of MG1655 under the pressure of the same drug, generation primary
[14] = MG1655, as E2, generation 20, read-out: MIC of MG1655 under the pressure of the same drug, generation 20
[15] = MG1655, as E2, generation 30, read-out: MIC of MG1655 under the pressure of the same drug, generation 30
[16] = MG1655, as E2, generation 40, read-out: MIC of MG1655 under the pressure of the same drug, generation 40
[17] = MG1655, as E2, generation 50, read-out: MIC of MG1655 under the pressure of the same drug, generation 50
[18] = MG1655, as E2, generation 60, read-out: MIC of MG1655 under the pressure of the same drug, generation 60
[19] = MG1655, as E2, generation 70, read-out: MIC of MG1655 under the pressure of the same drug, generation 70
[20] = MG1655, as E2, generation 80, read-out: MIC of MG1655 under the pressure of the same drug, generation 80
[21] = MG1655, as E2, generation 90, read-out: MIC of MG1655 under the pressure of the same drug, generation 90
[22] = MG1655, as E2, generation 100, read-out: MIC of MG1655 under the pressure of the same drug, generation 100
[23] = MG1655, as E2, generation 110, read-out: MIC of MG1655 under the pressure of the same drug, generation 110
[24] = MG1655, as E2, generation 120, read-out: MIC of MG1655 under the pressure of the same drug, generation 120

OO [H2O2, hydrogen peroxide]
survival rate of all strains after H2O2 treatment [1]: lower than 1%

C[C@H]1c2cccc(O)c2C(=O)C2=C(O)[C@]3(O)C(=O)C(C(N)=O)=C(O)[C@@H](N(C)C)[C@@H]3[C@@H](O)[C@@H]21 [DOX, Doxycycline]
MIC [2, 12]: 16 µg/mL
MIC [2, 13]: 2 µg/mL
MIC [2, 14]: 32 µg/mL
MIC [2, 15]: 32 µg/mL
MIC [2, 16]: 32 µg/mL
MIC [2, 17]: 32 µg/mL
MIC [2, 18]: 32 µg/mL
MIC [2, 19]: 32 µg/mL
MIC [2, 20]: 32 µg/mL
MIC [2, 21]: 32 µg/mL
MIC [2, 22]: 32 µg/mL
MIC [2, 23]: 32 µg/mL
MIC [2, 24]: 32 µg/mL
MIC [3]: 2 µg/mL (≈ 4.5 µM)
MIC [4]: 8 µg/mL (≈ 18 µM)
MIC [5]: 16 µg/mL (≈ 36 µM)
MIC [6]: 16 µg/mL (≈ 36 µM)
MIC [7]: 4 µg/mL (≈ 9 µM)
MIC [8]: 32 µg/mL (≈ 72 µM)
MIC [9]: 1 µg/mL (≈ 2.25 µM)
MIC [10]: 8 µg/mL (≈ 18 µM)
MIC [11]: 4 µg/mL (≈ 9 µM)

CC[C@H]1OC(=O)[C@H](C)[C@@H](O[C@H]2C[C@@](C)(OC)[C@@H](O)[C@H](C)O2)[C@H](C)[C@@H](O[C@@H]2O[C@H](C)C[C@H](N(C)C)[C@H]2O)[C@](C)(O)C[C@@H](C)CN(C)[C@H](C)[C@@H](O)[C@]1(C)O [AZI, Azithromycin]
MIC [2, 12]: 2 µg/mL
MIC [2, 13]: 2 µg/mL
MIC [2, 14]: 2 µg/mL
MIC [2, 15]: 2 µg/mL
MIC [2, 16]: 2 µg/mL
MIC [2, 17]: 4 µg/mL
MIC [2, 18]: 4 µg/mL
MIC [2, 19]: 4 µg/mL
MIC [2, 20]: 4 µg/mL
MIC [2, 21]: 4 µg/mL
MIC [2, 22]: 4 µg/mL
MIC [2, 23]: 8 µg/mL
MIC [2, 24]: 16 µg/mL
MIC [3]: 1 µg/mL (≈ 1.34 µM)
MIC [4]: 16 µg/mL (≈ 21.4 µM)
MIC [5]: 2 µg/mL (≈ 2.67 µM)
MIC [6]: 4 µg/mL (≈ 5.34 µM)
MIC [7]: 0.5 µg/mL (≈ 0.668 µM)
collateral sensitivity of COL120 (fold change of MIC vs wild-type MG1655) ([7]; MIC of COL120 compared with MG1655): exceeding fourfold
MIC [8]: 2 µg/mL (≈ 2.67 µM)
MIC [9]: 2 µg/mL (≈ 2.67 µM)
MIC [10]: 4 µg/mL (≈ 5.34 µM)
MIC [11]: 16 µg/mL (≈ 21.4 µM)
